Each structure is given as a SMILES string. Converted amounts (≈) assume the structure as drawn.

The IC50 is the point on the concentration scale where inhibition reaches its midpoint. A low value points to greater potency in that assay.

The test system of assay [1] is Haemophilus influenzae. The assay is described as follows: Antimicrobial activity against Haemophilus influenzae 895 (AcrB-KO) by NCCLS method. In kind it is functional.
A further assay deals with Escherichia coli. Nature of the assay: Inhibition of Escherichia coli translation. It is filed as functional, organism-based.
The subject of assay [2] is Streptococcus pneumoniae. Nature of the assay: Antimicrobial activity against mef (A) expressing Streptococcus pneumoniae 02J1175 by NCCLS method. It is filed as functional.
The test system of assay [3] is Streptococcus pyogenes. The assay is described as follows: Antimicrobial activity against erm (B) expressing Streptococcus pyogenes Msr 610 by NCCLS method. It is filed as functional.
In assay [4] the test system is Enterococcus faecalis. The assay is described as follows: Antimicrobial activity against Linezolid-resistant Enterococcus faecalis P5 by NCCLS method. In kind it is functional.
The subject of assay [5] is Haemophilus influenzae. Nature of the assay: Antimicrobial activity against Haemophilus influenzae parent strain RD1 by NCCLS method. It is filed as functional.
Assay [6] concerns Enterococcus faecalis. The assay is described as follows: Antimicrobial activity against Linezolid-resistant Enterococcus faecalis ATCC 29212-P5 by NCCLS method. In kind it is functional.
The subject of assay [7] is Enterococcus faecalis. Nature of the assay: Antimicrobial activity against vanB+ expressing Enterococcus faecalis 1069 by NCCLS method. In kind it is functional.
In the next assay the test system is Staphylococcus aureus. The assay is described as follows: Antimicrobial activity against methicillin-resistant Staphylococcus aureus 67-0 by NCCLS method. It is filed as functional.
Assay [8] concerns Streptococcus pneumoniae. The assay is described as follows: Antimicrobial activity against erm (B) expressing Streptococcus pneumoniae 02J1258 + L4 by NCCLS method. It is filed as functional.
The subject of assay [9] is Streptococcus pyogenes. The assay is described as follows: Antimicrobial activity against erm (B) Streptococcus pyogenes msr610 by NCCLS method. In kind it is functional.
The subject of assay [10] is Haemophilus influenzae. Nature of the assay: Antimicrobial activity against Haemophilus influenzae 1100 by NCCLS method. It is filed as functional.
Assay [11] relates to Haemophilus influenzae. The assay is described as follows: Antimicrobial activity against Haemophilus influenzae A1950 by NCCLS method. It is filed as functional.
The test system of assay [12] is Haemophilus influenzae. Nature of the assay: Antimicrobial activity against Haemophilus influenzae by NCCLS method. In kind it is functional.
Another assay relates to Enterococcus faecium. Nature of the assay: Antimicrobial activity against vanA+ expressing Enterococcus faecium A6349 by NCCLS method.

With `CC(=O)NC[C@H]1CN(c2ccc(-c3ccc(CNCc4ccncc4)cc3)c(F)c2)C(=O)O1`, the MIC was determined as 0.5 µg/mL (≈ 1.11 µM) against Haemophilus influenzae [1]; 0.25 µg/mL (≈ 0.557 µM) with Streptococcus pneumoniae [2]; 0.5 µg/mL (≈ 1.11 µM) in the assay with Streptococcus pyogenes [3]; 2 µg/mL (≈ 4.46 µM) with Enterococcus faecalis [4]; 8 µg/mL (≈ 17.8 µM) with Haemophilus influenzae [5]. The compound also displayed an IC50 in the assay with Escherichia coli of 50 nM.
`CC(=O)NC[C@H]1CN(c2ccc(-c3ccc(CNCc4ccnc5ccccc45)cc3)c(F)c2)C(=O)O1`: the MIC in the assay with Haemophilus influenzae [1] is 1 µg/mL (≈ 2.01 µM); with Streptococcus pneumoniae [2], 0.5 µg/mL (≈ 1 µM); against Streptococcus pyogenes [3] it was 0.5 µg/mL (≈ 1 µM); against Enterococcus faecalis [4] it was 2 µg/mL (≈ 4.01 µM); with Haemophilus influenzae [5] it was 8 µg/mL (≈ 16 µM). In addition, in the assay with Escherichia coli, the IC50 is below 20 nM.
Consider `CC(=O)NC[C@H]1CN(c2ccc(-c3ccc(CNCCCF)cc3)c(F)c2)C(=O)O1`, for which the MIC was found to be 0.125 µg/mL (≈ 0.299 µM) against Streptococcus pneumoniae [2]; 2 µg/mL (≈ 4.79 µM) in the assay on Haemophilus influenzae [5]; 2 µg/mL (≈ 4.79 µM) in the assay with Enterococcus faecalis [6]; 0.5 µg/mL (≈ 1.2 µM) against Enterococcus faecalis [7]; 1 µg/mL (≈ 2.4 µM) with Staphylococcus aureus; 0.125 µg/mL with Streptococcus pneumoniae [8]. Further, the MIC against Streptococcus pyogenes [9] was found to be 0.125 µg/mL (≈ 0.299 µM); in the assay on Haemophilus influenzae [10], 2 µg/mL (≈ 4.79 µM); in the assay with Haemophilus influenzae [11] it was 4 µg/mL (≈ 9.58 µM); in the assay on Haemophilus influenzae [12], 4 µg/mL (≈ 9.58 µM); in the assay on Enterococcus faecium, 1 µg/mL (≈ 2.4 µM).
As for `CC(=O)NC[C@H]1CN(c2ccc(-c3ccc(Cn4cnnn4)cc3)c(F)c2)C(=O)O1`, the MIC against Streptococcus pneumoniae [2] stood at 0.25 µg/mL (≈ 0.609 µM); in the assay on Haemophilus influenzae [5], 2 µg/mL (≈ 4.87 µM); with Enterococcus faecalis [6], 1 µg/mL (≈ 2.44 µM); against Enterococcus faecalis [7], 0.5 µg/mL (≈ 1.22 µM); with Staphylococcus aureus, 1 µg/mL (≈ 2.44 µM); with Streptococcus pneumoniae [8], 0.5 µg/mL. Also, the MIC with Streptococcus pyogenes [9] worked out at 0.5 µg/mL (≈ 1.22 µM); in the assay on Haemophilus influenzae [10], 2 µg/mL (≈ 4.87 µM); in the assay with Haemophilus influenzae [11], 8 µg/mL (≈ 19.5 µM); in the assay with Haemophilus influenzae [12], 4 µg/mL (≈ 9.75 µM); with Enterococcus faecium, 1 µg/mL (≈ 2.44 µM).
`CC(=O)NC[C@H]1CN(c2ccc(N3CCOCC3)c(F)c2)C(=O)O1` [LINEZOLID]: the MIC with Haemophilus influenzae [1] was 8 µg/mL (≈ 23.7 µM); with Streptococcus pyogenes [3] it was 1 µg/mL (≈ 2.96 µM); against Enterococcus faecalis [4], 32 µg/mL (≈ 94.9 µM); with Haemophilus influenzae [5], 16 µg/mL (≈ 47.4 µM); against Enterococcus faecalis [6], 32 µg/mL (≈ 94.9 µM); with Streptococcus pyogenes [9], 1 µg/mL (≈ 2.96 µM). In addition, the MIC in the assay with Haemophilus influenzae [10] stood at 16 µg/mL (≈ 47.4 µM); with Haemophilus influenzae [11] it was 32 µg/mL (≈ 94.9 µM); in the assay with Haemophilus influenzae [12], 32 µg/mL (≈ 94.9 µM). In the assay on Escherichia coli, this compound had an IC50 of 4600 nM.
Regarding `CC(=O)NC[C@H]1CN(c2ccc(-c3ccc(CNCc4ccco4)cc3)c(F)c2)C(=O)O1`, the MIC was found to be 0.5 µg/mL (≈ 1.14 µM) in the assay with Haemophilus influenzae [1]; 0.25 µg/mL (≈ 0.571 µM) in the assay with Streptococcus pneumoniae [2]; 0.25 µg/mL (≈ 0.571 µM) against Streptococcus pyogenes [3]; 4 µg/mL (≈ 9.14 µM) with Enterococcus faecalis [4]; 4 µg/mL (≈ 9.14 µM) in the assay on Haemophilus influenzae [5]. In the assay with Escherichia coli, this compound had an IC50 of 40 nM.
As for `CC(=O)NC[C@H]1CN(c2ccc(-c3ccc(CNCC#N)cc3)c(F)c2)C(=O)O1`, the MIC is 0.25 µg/mL (≈ 0.631 µM) against Streptococcus pneumoniae [2]; 4 µg/mL (≈ 10.1 µM) with Haemophilus influenzae [5]; 1 µg/mL (≈ 2.52 µM) in the assay with Enterococcus faecalis [6]; at most 0.25 µg/mL in the assay on Enterococcus faecalis [7]; 0.5 µg/mL (≈ 1.26 µM) in the assay on Staphylococcus aureus; 0.25 µg/mL with Streptococcus pneumoniae [8]. For the same compound, the MIC against Streptococcus pyogenes [9] amounted to 0.25 µg/mL (≈ 0.631 µM); in the assay with Haemophilus influenzae [10], 4 µg/mL (≈ 10.1 µM); against Haemophilus influenzae [11] it was 8 µg/mL (≈ 20.2 µM); in the assay on Haemophilus influenzae [12], 8 µg/mL (≈ 20.2 µM); in the assay with Enterococcus faecium, 1 µg/mL (≈ 2.52 µM).
In the case of `CC(=O)NC[C@H]1CN(c2ccc(-c3ccc(CNCc4cnn[nH]4)cc3)c(F)c2)C(=O)O1` [RADEZOLID], the MIC against Streptococcus pneumoniae [2] is 0.25 µg/mL (≈ 0.57 µM); in the assay with Haemophilus influenzae [5], 0.5 µg/mL (≈ 1.14 µM); with Enterococcus faecalis [6], 1 µg/mL (≈ 2.28 µM); with Enterococcus faecalis [7], at most 0.25 µg/mL; in the assay with Staphylococcus aureus it was 1 µg/mL (≈ 2.28 µM); with Streptococcus pneumoniae [8] it was 0.25 µg/mL. Also, the MIC with Streptococcus pyogenes [9] was 0.125 µg/mL (≈ 0.285 µM); in the assay with Haemophilus influenzae [10], 0.25 µg/mL (≈ 0.57 µM); against Haemophilus influenzae [11], 1 µg/mL (≈ 2.28 µM); with Haemophilus influenzae [12], 1 µg/mL (≈ 2.28 µM); with Enterococcus faecium, 0.5 µg/mL (≈ 1.14 µM).
For the compound `CC(=O)NC[C@H]1CN(c2ccc(-c3ccc(Cn4ncnn4)cc3)c(F)c2)C(=O)O1`, the MIC against Streptococcus pneumoniae [2] is 0.125 µg/mL (≈ 0.305 µM); in the assay with Haemophilus influenzae [5], 4 µg/mL (≈ 9.75 µM); in the assay with Enterococcus faecalis [6] it was 1 µg/mL (≈ 2.44 µM); in the assay with Enterococcus faecalis [7], at most 0.25 µg/mL; in the assay on Staphylococcus aureus, 0.5 µg/mL (≈ 1.22 µM); in the assay with Streptococcus pneumoniae [8], 0.25 µg/mL. In addition, the MIC stood at 0.125 µg/mL (≈ 0.305 µM) against Streptococcus pyogenes [9]; 4 µg/mL (≈ 9.75 µM) against Haemophilus influenzae [10]; 8 µg/mL (≈ 19.5 µM) with Haemophilus influenzae [11]; 8 µg/mL (≈ 19.5 µM) against Haemophilus influenzae [12]; 0.5 µg/mL (≈ 1.22 µM) in the assay on Enterococcus faecium.
As for `CC(=O)NC[C@H]1CN(c2ccc(-c3ccc(Cn4ccnn4)cc3)c(F)c2)C(=O)O1`, the MIC with Streptococcus pneumoniae [2] came to 0.5 µg/mL (≈ 1.22 µM); in the assay on Haemophilus influenzae [5], 4 µg/mL (≈ 9.77 µM); against Enterococcus faecalis [6], 1 µg/mL (≈ 2.44 µM); in the assay on Enterococcus faecalis [7], 0.5 µg/mL (≈ 1.22 µM); against Staphylococcus aureus, 0.5 µg/mL (≈ 1.22 µM); in the assay with Streptococcus pneumoniae [8], 0.25 µg/mL. The MIC against Streptococcus pyogenes [9] turned out to be 0.5 µg/mL (≈ 1.22 µM); against Haemophilus influenzae [10], 2 µg/mL (≈ 4.88 µM); in the assay on Haemophilus influenzae [11] it was 8 µg/mL (≈ 19.5 µM); against Haemophilus influenzae [12], 4 µg/mL (≈ 9.77 µM); against Enterococcus faecium it was 1 µg/mL (≈ 2.44 µM).
Consider `CC(=O)NC[C@H]1CN(c2ccc(-c3ccc(CNCc4cnoc4)cc3)c(F)c2)C(=O)O1`, for which the MIC amounted to 0.125 µg/mL (≈ 0.285 µM) against Streptococcus pneumoniae [2]; 2 µg/mL (≈ 4.56 µM) in the assay with Haemophilus influenzae [5]; 2 µg/mL (≈ 4.56 µM) against Enterococcus faecalis [6]; 0.5 µg/mL (≈ 1.14 µM) with Enterococcus faecalis [7]; 0.125 µg/mL in the assay with Streptococcus pneumoniae [8]; 0.125 µg/mL (≈ 0.285 µM) in the assay with Streptococcus pyogenes [9]. In addition, the MIC against Haemophilus influenzae [10] amounted to 1 µg/mL (≈ 2.28 µM); in the assay on Haemophilus influenzae [11], 8 µg/mL (≈ 18.2 µM); against Haemophilus influenzae [12] it was 4 µg/mL (≈ 9.12 µM); in the assay on Enterococcus faecium it was 1 µg/mL (≈ 2.28 µM).
